According to patent publication US20240408169A1 (priority 2023, published 2024):
Read-outs that look alike come from different tables or passages of the source. *1 amine or outer side, *2 acyl side, *3 side chain or, on linkers, in order; H or OH if unused. Where a SMILES comes first, the peptide text is derived from it. Bridges are numbered along the chain shown (N, C = ends). [ ]: non-standard residue; d: D form. The star is where a group is joined. X98 = CN1CC2(C1)OCc1cc(-c3ccc(Cl)cc3C[C@@H](C(=O)[*:2])N(C)[*:1])ccc12; X90 = CC(=O)N1CC=C(c2ccc(Cl)cc2C[C@@H](C(=O)[*:2])N(C)[*:1])CC1; X216 = CN1CCC(c2ccc(Cl)cc2C[C@@H](C(=O)[*:2])N(C)[*:1])=CC1=O; NMehhhLys(Me) = CN([C@@H](CCCCCCCN(C)[*:3])C(=O)[*:2])[*:1]; X215 = Cc1noc(C)c1-c1ccc(Cl)cc1C[C@@H](C(=O)[*:2])N(C)[*:1]; X66 = CN([C@@H](Cc1cc(Cl)ccc1-c1cccnc1)C(=O)[*:2])[*:1]; NMe(hhhLys) = CN([C@@H](CCCCCCCN[*:3])C(=O)[*:2])[*:1]; NMe3Pal(2-OMe,5-Cl) = CN[C@@H](Cc1cc(Cl)cnc1OC)C(=O)O; X213 = CN([C@@H](Cc1cc(Cl)cc2c1cnn2C)C(=O)[*:2])[*:1]; X214 = CC(C)Cc1ccc(Cl)cc1C[C@@H](C(=O)[*:2])N(C)[*:1]; cBuCO(3,3-F2-1-CF3) = O=C(C1(C(F)(F)F)CC(F)(F)C1)*; NMePhe(2,5-Cl2) = CN[C@@H](Cc1cc(Cl)ccc1Cl)C(=O)O; Pro(trans-4-F) = O=C(O)[C@@H]1C[C@@H](F)CN1; Gly(cPr) = N[C@H](C(=O)O)C1CC1

How the values were obtained:
NCI-H1048 cells = test: MTT proliferation assay, NCI-H1048; assay type: cell-based; settings: 5 days compound exposure, 1:3 serial dilution starting at 10 μM;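 also: Dose-response in 96-well plates over 8 or 10 concentration points, with exposure spanning 3-4 cell doublings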
CyclinB1/CDK1 = biological target: T1, CyclinB1/CDK1 (Homo sapiens, UniProt P14635); test: Fluorescence Polarization (FP) competitive binding assay, Cyclin B1/Cdk1;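 also: fluorescence polarization read after equilibration at room temperature, with IC50 taken from serially diluted dose-response curves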
T1 construct: purchased Eurofins, discovery 14-450

CyclinA2/CDK2 = biological target: T2, CyclinA2/CDK2 (Homo sapiens, UniProt P20248); test: Fluorescence Polarization (FP) competitive binding assay, Cyclin A2/Cdk2;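 also: plates equilibrated two hours at room temperature before polarization reading, IC50 fitted from eight-concentration compound titration curves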
T2 construct: purchased CRELUX Protein Services

OVCAR3 cells = test: MTT proliferation assay, OVCAR3; assay type: cell-based; settings: 5 days compound exposure, 1:3 serial dilution starting at 10 μM;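 also: compound given as an 8- or 10-point series, one day after plating, with exposure covering roughly 3-4 cell doublings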
CyclinE1/CDK2 = biological target: T3, CyclinE1/CDK2 (Homo sapiens, UniProt P24864); test: Fluorescence Polarization (FP) competitive binding assay, Cyclin E1/Cdk2;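 also: readings taken after two-hour equilibration at room temperature in HEPES buffer with NaCl, DTT, NP-40 and BSA, IC50 fitted from eight-concentration serial dilution series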
T3 construct: purchased Eurofins, discovery 14-475

[1] = 10 nM Cyclin B1/Cdk1, 2 nM FAM probe; average of 2-3 independent experiments; read-out: Cyclin B FP IC50
[2] = 8 nM Cyclin A2/Cdk2, 2 nM FAM probe, average of 2-3 independent experiments, read-out: Cyclin A FP IC50
[3] = 10 nM Cyclin E1/Cdk2, 2 nM FAM probe, average of 2-3 independent experiments, read-out: Cyclin E FP IC50
[4] = read-out: Cyclin B FP IC50; 10 nM Cyclin B1/Cdk1, 2 nM FAM probe; average of 2-3 independent experiments

Compound	GI50 (NCI-H1048 cells)	IC50 (CyclinB1/CDK1; [1])	IC50 (CyclinA2/CDK2; [2])	GI50 (OVCAR3 cells)	IC50 (CyclinE1/CDK2; [3])	IC50 (CyclinB1/CDK1; [4])	IC50 (CyclinA2/CDK2)	IC50 (CyclinE1/CDK2)	IC50 (CyclinE1/CDK2; Cyclin E FP IC50, 10 nM Cyclin E1/Cdk2, 2 nM FAM probe, average of 2-3 independent experiments)
CC(C)C[C@@H]1NC(=O)[C@@H](N(C)C(=O)[C@@H](NC(=O)[C@@H]2C[C@@H](F)CN2C(=O)C2(C(F)(F)F)CC2)C2CC2)CC=CCCCCNC(=O)[C@H](Cc2cc(Cl)ccc2Cl)N(C)C1=O (single isomer, unassigned) [Example 5-P1]	390 nM	20 nM	790 nM	690 nM	700 nM				
CC(C)C[C@@H]1NC(=O)[C@@H](N(C)C(=O)[C@@H](NC(=O)[C@@H]2C[C@@H](F)CN2C(=O)C2(C(F)(F)F)CC2)C2CC2)CC=CCCCCNC(=O)[C@H](Cc2cc(Cl)ccc2Cl)N(C)C1=O (single isomer, unassigned) [Example 5-P2]	290 nM	20 nM	560 nM	560 nM	460 nM				
CC(C)C[C@@H]1NC(=O)[C@@H](N(C)C(=O)[C@@H](NC(=O)[C@@H]2C[C@@H](F)CN2C(=O)C2(C(F)(F)F)CC3(CCC3)C2)C2CC2)CC=CCCCCNC(=O)[C@H](Cc2cc(Cl)ccc2Cl)N(C)C1=O (single isomer, unassigned) [Example 16-P1]	340 nM	20 nM		880 nM	3150 nM				
CC(C)C[C@@H]1NC(=O)[C@@H](N(C)C(=O)[C@@H](NC(=O)[C@@H]2C[C@@H](F)CN2C(=O)C2(C(F)(F)F)CC3(CCC3)C2)C2CC2)CC=CCCCCNC(=O)[C@H](Cc2cc(Cl)ccc2Cl)N(C)C1=O (single isomer, unassigned) [Example 16-P2]	350 nM	20 nM		990 nM	2710 nM				
CC(=O)N1C2CCC1CC(c1ccc(F)cc1C[C@H]1C(=O)N(C)CCCCCCC[C@H](N(C)C(=O)[C@@H](NC(=O)[C@@H]3C[C@@H](F)CN3C(=O)C3(C(F)(F)F)CC(F)(F)C3)C3CC3)C(=O)N[C@@H](CC(C)C)C(=O)N1C)C2 (single isomer, unassigned) [Example 59-P1]	20 nM	20 nM	120 nM	20 nM	850 nM				
CC(=O)N1C2CCC1CC(c1ccc(F)cc1C[C@H]1C(=O)N(C)CCCCCCC[C@H](N(C)C(=O)[C@@H](NC(=O)[C@@H]3C[C@@H](F)CN3C(=O)C3(C(F)(F)F)CC(F)(F)C3)C3CC3)C(=O)N[C@@H](CC(C)C)C(=O)N1C)C2 (single isomer, unassigned) [Example 59-P2]	60 nM	20 nM	180 nM	50 nM	870 nM				
CC(C)C[C@@H]1NC(=O)[C@@H](N(C)C(=O)[C@@H](NC(=O)[C@@H]2C[C@@H](F)CN2C(=O)C2(C(F)(F)F)CC(F)(F)C2)C2CC2)CCCCCCCNC(=O)[C@H](Cc2cc(Cl)ccc2Cl)N(C)C1=O [Example 7] ({cBuCO(3,3-F2-1-CF3)}-[Pro(trans-4-F)][Gly(cPr)][NMe(hhhLys)]L[NMePhe(2,5-Cl2)]; lactam 3-C)	20 nM	20 nM		50 nM	290 nM				
CC(C)C[C@@H]1NC(=O)[C@@H](N(C)C(=O)[C@@H](NC(=O)[C@@H]2C[C@@H](F)CN2C(=O)C2(C(F)(F)F)CC(F)(F)C2)C2CC2)CC=CCCCCN(C)C(=O)[C@H](Cc2cc(Cl)ccc2Cl)N(C)C1=O [Example 14]	100 nM	20 nM		200 nM	340 nM				
CC(C)C[C@@H]1NC(=O)[C@@H](N(C)C(=O)[C@@H](NC(=O)[C@@H]2C[C@@H](F)CN2C(=O)C2(C(F)(F)F)CC(F)(F)C2)C2CC2)CC=CCCCCNC(=O)[C@H](Cc2cc(Cl)ccc2-c2cccc(Cl)c2)N(C)C1=O [Example 19]	550 nM	20 nM	430 nM	1760 nM					
CC(C)C[C@@H]1NC(=O)[C@@H](N(C)C(=O)[C@@H](NC(=O)[C@@H]2C[C@@H](F)CN2C(=O)C2(C(F)(F)F)CC(F)(F)C2)C2CC2)CC=CCCCCNC(=O)[C@H](Cc2cc(Cl)ccc2C2=CCC(F)(F)CC2)N(C)C1=O [Example 22]	1100 nM	20 nM	210 nM	1800 nM					
CC(=O)N1CC=C(c2ccc(Cl)cc2C[C@H]2C(=O)N(C)CCCCCCC[C@H](N(C)C(=O)[C@@H](NC(=O)[C@@H]3C[C@@H](F)CN3C(=O)C3(C(F)(F)F)CC(F)(F)C3)C3CC3)C(=O)N[C@@H](CC(C)C)C(=O)N2C)CC1 [Example 50, (2S,4R)—N—((S)-2-(((3S,6S,9S)-3-(2-(1-acetyl-1,2,3,6-tetrahydropyridin-4-yl)-5-chlorobenzyl)-6-isobutyl-1,4-dimethyl-2,5,8-trioxo-1,4,7-triazacyclohexadecan-9-yl)(methyl)amino)-1-cyclopropyl-2-oxoethyl)-1-(3,3-difluoro-1-(trifluoromethyl)cyclobutane-1-carbonyl)-4-fluoropyrrolidine-2-carboxamide] ({cBuCO(3,3-F2-1-CF3)}-[Pro(trans-4-F)][Gly(cPr)][NMehhhLys(Me)]L[X90]; lactam 3-C)	10 nM	20 nM		10 nM	1220 nM				
CC(C)Cc1ccc(Cl)cc1C[C@H]1C(=O)NCCCCCCC[C@H](N(C)C(=O)[C@@H](NC(=O)[C@@H]2C[C@@H](F)CN2C(=O)C2(C(F)(F)F)CC(F)(F)C2)C2CC2)C(=O)N[C@@H](CC(C)C)C(=O)N1C [Example 64] ({cBuCO(3,3-F2-1-CF3)}-[Pro(trans-4-F)][Gly(cPr)][NMe(hhhLys)]L[X214]; lactam 3-C)	510 nM	20 nM	380 nM	1240 nM					
CC(C)C[C@@H]1NC(=O)[C@@H](N(C)C(=O)[C@@H](NC(=O)[C@@H]2C[C@@H](F)CN2C(=O)C2(C(F)(F)F)CC(F)(F)C2)C2CC2)CCCCCCCN(C)C(=O)[C@H](Cc2cc(Cl)ccc2-c2cccnc2)N(C)C1=O [Example 196] ({cBuCO(3,3-F2-1-CF3)}-[Pro(trans-4-F)][Gly(cPr)][NMehhhLys(Me)]L[X66]; lactam 3-C)	10 nM	20 nM		10 nM	740 nM				
Cc1noc(C)c1-c1ccc(Cl)cc1C[C@H]1C(=O)N(C)CCCCCCC[C@H](N(C)C(=O)[C@@H](NC(=O)[C@@H]2C[C@@H](F)CN2C(=O)C2(C(F)(F)F)CC(F)(F)C2)C2CC2)C(=O)N[C@@H](CC(C)C)C(=O)N1C [Example 210] ({cBuCO(3,3-F2-1-CF3)}-[Pro(trans-4-F)][Gly(cPr)][NMehhhLys(Me)]L[X215]; lactam 3-C)	100 nM			110 nM		20 nM	420 nM		
COc1ncc(Cl)cc1C[C@H]1C(=O)N(C)CCCCCCC[C@H](N(C)C(=O)[C@@H](NC(=O)[C@@H]2C[C@@H](F)CN2C(=O)C2(C(F)(F)F)CC(F)(F)C2)C2CC2)C(=O)N[C@@H](CC(C)C)C(=O)N1C [Example 222] ({cBuCO(3,3-F2-1-CF3)}-[Pro(trans-4-F)][Gly(cPr)][NMehhhLys(Me)]L[NMe3Pal(2-OMe,5-Cl)]; lactam 3-C)	10 nM			10 nM		20 nM		230 nM	
CC(C)C[C@@H]1NC(=O)[C@@H](N(C)C(=O)[C@@H](NC(=O)[C@@H]2C[C@@H](F)CN2C(=O)C2(C(F)(F)F)CC(F)(F)C2)C2CC2)CCCCCCCN(C)C(=O)[C@H](Cc2cc(Cl)ccc2C2=CC(=O)N(C)CC2)N(C)C1=O [Example 237] ({cBuCO(3,3-F2-1-CF3)}-[Pro(trans-4-F)][Gly(cPr)][NMehhhLys(Me)]L[X216]; lactam 3-C)	10 nM			40 nM		20 nM			1140 nM
CC(C)C[C@@H]1NC(=O)[C@@H](N(C)C(=O)[C@@H](NC(=O)[C@@H]2C[C@@H](F)CN2C(=O)C2(C(F)(F)F)CC(F)(F)C2)C2CC2)CCCCCCCNC(=O)[C@H](Cc2cc(Cl)ccc2-c2ccc3c(c2)COC32CN(C)C2)N(C)C1=O [Example 395] ({cBuCO(3,3-F2-1-CF3)}-[Pro(trans-4-F)][Gly(cPr)][NMe(hhhLys)]L[X98]; lactam 3-C)	20 nM			10 nM					
CC(C)C[C@@H]1NC(=O)[C@@H](N(C)C(=O)[C@@H](NC(=O)[C@@H]2C[C@@H](F)CN2C(=O)C2(C(F)(F)F)CC(F)(F)C2)C2CC2)CCCCCCCN(C)C(=O)[C@H](Cc2cc(Cl)cc3c2cnn3C)N(C)C1=O [Example 424] ({cBuCO(3,3-F2-1-CF3)}-[Pro(trans-4-F)][Gly(cPr)][NMehhhLys(Me)]L[X213]; lactam 3-C)	2510 nM	45.5 nM		1780 nM	3820 nM				
